Key:
Format in all cases: cell-based, human
[1] = test system: TALL-104; assay: Luminex cytokine profiling of cell culture supernatant
Method: (§1) Collection of cell culture supernatants used in cytokine measurements. Cells were plated at 3.5×10^4 cells in a 48-well plate (Thermo Fisher Scientific, Waltham, MA, USA) in complete medium and incubated at 37° C. with 5% CO2. At twenty-four hours after plating, almost all the tumor cells were adherent to the bottom of the flask and the complete medium was replaced with the drug-containing medium. Subsequently, the culture supernatants were collected after forty-eight hours of incubation and were frozen at −80° C. until the measurement of cytokines was performed. On the day of analysis, samples were thawed and centrifuged to remove cellular debris.
(§2) Human cytokine profiling. Human cell line culture supernatants were analyzed using an R&D systems Human Premixed Multi-Analyte Kit (R&D Systems, Inc., Minneapolis, MN, USA) and a Luminex 200 (RRID: SCR_018025) Instrument (LX200-XPON-RUO, Luminex Corporation, Austin, TX, USA) according to the manufacturer's instructions. Sample levels of TNF-α, 4-1BB/TNFRSF9/CD137, IL-8/CXCL8, Ferritin, IFN-β, IL-10, CCL2/JE/MCP-1, VEGF, CXCL13/BLC/BCA-1, IFN-γ, CCL20/MIP-3 α, CCL3/MIP-1 α, CCL22/MDC, CCL4/MIP-1 β, Fas Ligand/TNFSF6, IL-17/1L-17A, IL-2, BAFF/BLyS/TNFSF13B, GM-CSF, CXCLS/ENA-78, TRANCE/TNFSF11/RANK L, CXCL9/MIG, G-CSF, IFN-γ R1/CD119, VEGFR3/Flt-4, C-Reactive Protein/CRP, CXCL11/I-TAC, IL-21, CXCL14/BRAK, IL-6, Fas/TNFRSF6/CD95, TRAIL R3/TNFRSF10C, IL-4, CCL5/RANTES, PD-L1/137-H1, CCL7/MCP-3/MARC, Chitinase 3-like 1, CXCL10/IP-10/CRG-2, IL-1 μ/IL-1F2, IL-7, Prolactin, CCL8/MCP-2, TRAIL R2/TNFRSF10B, M-CSF, IL-15, Granzyme B, IFN-α, TREM-1, IL-12/1L-23 p40, TRAIL/TNFSF10, CCL11/Eotaxin, and 1L-18/1L-1F4. Quantitative analysis with 6 standards and a minimum of 50 counts per bead region was used with the Luminex to generate analyte values reported as picograms/milliliter (pg/mL). Sample concentrations less than the lower limit of detection for each particular analyte were recoded as the lower limit value divided by 10. Sample concentrations above the upper limit of detection for a particular analyte were recoded as the upper limit of detection.
(§3) Saos-2 osteosarcoma and 93T449 liposarcoma cell lines were pretreated at IC50 with elraglusib. The cells were harvested for Western blot analysis after 48 hours of treatment. Both cancer cell lines as well as TALL-104 T-cells and NK-92 NK cells were treated with 0.5 μM elraglusib for twenty-four hours and harvested for Luminex cytokine profiling.
(§4) Because the previously observed non-canonical NF-κB pathway activation enhances the expression of immune cell chemotactic chemokines and cytokines, the inventors determine how elraglusib treatment impacts the immune cell secretome. TALL-104 and NK-92 cells were treated with 1 μM elraglusib for forty-eight hours before cell culture supernatant was collected for cytokine profile analysis.

[2] = test system: NK-92; assay: as above
Method: as §1, §2, §3, §4

[3] = test system: SW480; assay: multicolor co-culture of SW480 and TALL-104 T cells
Excerpt: Multicolor immune cell co-culture experiments.
Elraglusib sensitizes tumor cells to immune-mediated cytotoxicity. […] FIG. 8A. TALL-104 cells are a human leukemic T cell line.
FIG. 1A. […] FIG. 1B. […] FIG. 1C. […] FIG. 1D. […] FIG. 1E. […] FIG. 1F.

[4] = test system: NK-92; assay: microarray analysis; settings: 1 μM, 24 hours, vs untreated
Method: Microarrays. A total of 0.5×10^6 tumor cells (HCT-116, HT-29, KM12C) were plated in a 6-well plate and allowed to adhere overnight before 24-hour treatment, as indicated. Then, 1×10^6 immune cells (NK92, TALL-104) were plated and treated with elraglusib as indicated for twenty-four h. RNA was isolated from cell pellets in batches of six using a RNeasy Plus Mini Kit (Cat #74134, Qiagen, Hilden, Germany). Acceptable RNA concentration and quality were verified with Nanodrop and Bioanalyzer measurements. GeneChip™ Human Transcriptome Array 2.0 assays were conducted according to manufacturer instructions in two batches using randomized samples to limit batch effects (Cat #902162, Applied Biosystems, Waltham, MA, USA). Applied Biosystems Transcriptomic Analysis Console (TAC) software (RRID: SCR_016519) was used to calculate fold changes in gene expression relative to the untreated control cells. Values were considered statistically significant for p values<0.05.
Microarray analysis was used to obtain insights into gene expression changes in immune cell lines post-GSK-3 inhibition with elraglusib. Immune cell lines (TALL-104, NK-92) were treated with elraglusib at IC50 concentrations or DMSO as vehicle control for twenty-four hours and treated versus untreated samples were compared in triplicate using microarray analysis. FIG. 11. Results were calculated using a fold-change (FC) cutoff of >1.5, <−1.5, and a minimum p-value of <0.05. NK-92 cells had sixty-one differentially expressed genes post-treatment (FIG. 3D). the inventors observed an increase in genes that promote immune cell proliferation (TNFSF14, RAB38) and control immune cell adhesion and migration (WNK1) post-elraglusib treatment.
TABLE 11 description. NK-92 immune cell microarray analysis. NK-92 immune cells were treated with 1 μM elraglusib for 24 hours and treated versus untreated control samples were compared in triplicate via microarray analysis (N=3).

## Cn1cc(C2=C(c3coc4ccc(F)cc34)C(=O)NC2=O)c2cc3c(cc21)OCO3 [elraglusib]
[1]; 0.5 μM, twenty-four hours
  CXCL11: increase
  IL-18: increased level
[1]; 1 μM, forty-eight hours
  IFN-γ concentration: increases
  TRAIL concentration: increases
  granzyme B concentration: increases
[1]; twenty-four hours
  IFN-γ in cell culture supernatants: significant increase
[2]; 0.5 μM, twenty-four hours
  IL-8 chemokine: increase
  soluble TRAIL (TRAIL/TNFSF10): increase
[2]; 1 μM, forty-eight hours
  IFN-γ concentration: increases
  TRAIL concentration: increases
  secreted granzyme B concentration: decreases
[2]; twenty-four hours, effect smaller than in TALL-104
  IFN-γ in cell culture supernatants: significant increase
[3]; co-culture with TALL-104, 5 μM, 24 hours, E:T 1:1, normalized, without drug approximately 45%
  dead cells out of total cells: 60%
[3]; co-culture with TALL-104, 10 μM, 24 hours, E:T 1:1, normalized, without drug approximately 45%
  dead cells out of total cells: 65%
[3]; tumor cells pre-treated 5 μM for twenty-four hours, then co-cultured with TALL-104
  dead cells out of total cells: 65%
[4]
  ITGB8 Fold Change: −1.53
  MIR186 Fold Change: −1.52
  NAP1L1 Fold Change: −1.51
  RAB38 Fold Change: 1.65
  RNY5 Fold Change: 3.32
  S100A12 Fold Change: −1.78
  TNFSF14 Fold Change: 1.5
  WNK1 Fold Change: 1.5
